Read-outs that look alike come from different tables or passages of the source.
Assays:
Test in all cases: SelectScreen Z-LYTE kinase activity assay (SI Table 6)
Type in all cases: biochemical
[1] = molecular target: T1, protein kinases of the Z-LYTE panel (Homo sapiens, UniProt P36888)
T1 sequence (P36888 27-993): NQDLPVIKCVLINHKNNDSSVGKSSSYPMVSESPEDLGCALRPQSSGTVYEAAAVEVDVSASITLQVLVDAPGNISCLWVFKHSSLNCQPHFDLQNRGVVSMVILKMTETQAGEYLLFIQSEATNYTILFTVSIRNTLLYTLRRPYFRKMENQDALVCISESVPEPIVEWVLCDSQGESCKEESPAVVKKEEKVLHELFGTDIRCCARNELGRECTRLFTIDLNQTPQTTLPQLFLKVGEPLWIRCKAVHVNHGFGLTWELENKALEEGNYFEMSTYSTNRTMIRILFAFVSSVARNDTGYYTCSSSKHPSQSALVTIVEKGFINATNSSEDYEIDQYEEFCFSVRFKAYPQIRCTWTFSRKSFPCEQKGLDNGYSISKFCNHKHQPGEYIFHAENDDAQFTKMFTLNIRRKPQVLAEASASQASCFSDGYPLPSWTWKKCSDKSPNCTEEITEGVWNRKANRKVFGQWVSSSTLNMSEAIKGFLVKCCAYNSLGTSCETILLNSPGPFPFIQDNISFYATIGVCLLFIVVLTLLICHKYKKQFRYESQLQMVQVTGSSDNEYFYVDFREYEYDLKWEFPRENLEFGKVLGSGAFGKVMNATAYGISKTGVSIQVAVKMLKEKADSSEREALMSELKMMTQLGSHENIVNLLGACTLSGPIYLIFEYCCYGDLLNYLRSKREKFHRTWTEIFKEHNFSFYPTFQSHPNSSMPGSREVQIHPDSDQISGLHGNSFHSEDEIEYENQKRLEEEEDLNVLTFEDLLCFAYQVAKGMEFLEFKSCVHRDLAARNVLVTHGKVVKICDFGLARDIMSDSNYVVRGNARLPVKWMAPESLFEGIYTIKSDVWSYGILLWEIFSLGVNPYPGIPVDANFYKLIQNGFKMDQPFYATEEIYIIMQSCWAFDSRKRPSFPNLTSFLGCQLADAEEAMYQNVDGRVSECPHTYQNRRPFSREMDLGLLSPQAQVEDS
Procedure, shortened: (§1)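 Single-point profiling, 1 μM 1938; LanthaScreen binding, Adapta or Z-LYTE read-outs; 133 protein + 7 lipid kinases.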

[2] = molecular target: protein kinases of the Z-LYTE panel (Homo sapiens, UniProt P49137)
Procedure, shortened: as §1

[3] = molecular target: protein kinases of the Z-LYTE panel (Homo sapiens, UniProt P45983); details: MAPK8 (JNK1), 1000 nM, [ATP] 100 μM
Procedure, shortened: as §1

[4] = molecular target: protein kinases of the Z-LYTE panel (Homo sapiens, UniProt P54756)
Procedure, shortened: as §1

[5] = molecular target: protein kinases of the Z-LYTE panel (Homo sapiens, UniProt P19784)
Procedure, shortened: as §1

[6] = molecular target: protein kinases of the Z-LYTE panel (Homo sapiens, UniProt P08922)
Procedure, shortened: as §1

Sequence of protein kinases of the Z-LYTE panel (Homo sapiens, UniProt P49137) (P49137 whole entry): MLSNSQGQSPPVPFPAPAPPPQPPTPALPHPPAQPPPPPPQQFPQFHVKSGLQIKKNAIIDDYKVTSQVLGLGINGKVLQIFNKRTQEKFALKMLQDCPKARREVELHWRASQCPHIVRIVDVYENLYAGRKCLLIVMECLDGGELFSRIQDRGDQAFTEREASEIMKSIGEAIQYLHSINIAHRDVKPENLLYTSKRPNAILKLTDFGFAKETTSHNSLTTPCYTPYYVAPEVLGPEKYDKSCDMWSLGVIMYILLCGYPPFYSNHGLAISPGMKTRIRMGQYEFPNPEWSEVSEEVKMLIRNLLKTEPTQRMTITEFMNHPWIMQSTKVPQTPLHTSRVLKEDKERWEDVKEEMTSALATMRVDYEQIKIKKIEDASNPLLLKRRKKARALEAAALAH
Sequence of protein kinases of the Z-LYTE panel (Homo sapiens, UniProt P08922) (P08922 28-2347): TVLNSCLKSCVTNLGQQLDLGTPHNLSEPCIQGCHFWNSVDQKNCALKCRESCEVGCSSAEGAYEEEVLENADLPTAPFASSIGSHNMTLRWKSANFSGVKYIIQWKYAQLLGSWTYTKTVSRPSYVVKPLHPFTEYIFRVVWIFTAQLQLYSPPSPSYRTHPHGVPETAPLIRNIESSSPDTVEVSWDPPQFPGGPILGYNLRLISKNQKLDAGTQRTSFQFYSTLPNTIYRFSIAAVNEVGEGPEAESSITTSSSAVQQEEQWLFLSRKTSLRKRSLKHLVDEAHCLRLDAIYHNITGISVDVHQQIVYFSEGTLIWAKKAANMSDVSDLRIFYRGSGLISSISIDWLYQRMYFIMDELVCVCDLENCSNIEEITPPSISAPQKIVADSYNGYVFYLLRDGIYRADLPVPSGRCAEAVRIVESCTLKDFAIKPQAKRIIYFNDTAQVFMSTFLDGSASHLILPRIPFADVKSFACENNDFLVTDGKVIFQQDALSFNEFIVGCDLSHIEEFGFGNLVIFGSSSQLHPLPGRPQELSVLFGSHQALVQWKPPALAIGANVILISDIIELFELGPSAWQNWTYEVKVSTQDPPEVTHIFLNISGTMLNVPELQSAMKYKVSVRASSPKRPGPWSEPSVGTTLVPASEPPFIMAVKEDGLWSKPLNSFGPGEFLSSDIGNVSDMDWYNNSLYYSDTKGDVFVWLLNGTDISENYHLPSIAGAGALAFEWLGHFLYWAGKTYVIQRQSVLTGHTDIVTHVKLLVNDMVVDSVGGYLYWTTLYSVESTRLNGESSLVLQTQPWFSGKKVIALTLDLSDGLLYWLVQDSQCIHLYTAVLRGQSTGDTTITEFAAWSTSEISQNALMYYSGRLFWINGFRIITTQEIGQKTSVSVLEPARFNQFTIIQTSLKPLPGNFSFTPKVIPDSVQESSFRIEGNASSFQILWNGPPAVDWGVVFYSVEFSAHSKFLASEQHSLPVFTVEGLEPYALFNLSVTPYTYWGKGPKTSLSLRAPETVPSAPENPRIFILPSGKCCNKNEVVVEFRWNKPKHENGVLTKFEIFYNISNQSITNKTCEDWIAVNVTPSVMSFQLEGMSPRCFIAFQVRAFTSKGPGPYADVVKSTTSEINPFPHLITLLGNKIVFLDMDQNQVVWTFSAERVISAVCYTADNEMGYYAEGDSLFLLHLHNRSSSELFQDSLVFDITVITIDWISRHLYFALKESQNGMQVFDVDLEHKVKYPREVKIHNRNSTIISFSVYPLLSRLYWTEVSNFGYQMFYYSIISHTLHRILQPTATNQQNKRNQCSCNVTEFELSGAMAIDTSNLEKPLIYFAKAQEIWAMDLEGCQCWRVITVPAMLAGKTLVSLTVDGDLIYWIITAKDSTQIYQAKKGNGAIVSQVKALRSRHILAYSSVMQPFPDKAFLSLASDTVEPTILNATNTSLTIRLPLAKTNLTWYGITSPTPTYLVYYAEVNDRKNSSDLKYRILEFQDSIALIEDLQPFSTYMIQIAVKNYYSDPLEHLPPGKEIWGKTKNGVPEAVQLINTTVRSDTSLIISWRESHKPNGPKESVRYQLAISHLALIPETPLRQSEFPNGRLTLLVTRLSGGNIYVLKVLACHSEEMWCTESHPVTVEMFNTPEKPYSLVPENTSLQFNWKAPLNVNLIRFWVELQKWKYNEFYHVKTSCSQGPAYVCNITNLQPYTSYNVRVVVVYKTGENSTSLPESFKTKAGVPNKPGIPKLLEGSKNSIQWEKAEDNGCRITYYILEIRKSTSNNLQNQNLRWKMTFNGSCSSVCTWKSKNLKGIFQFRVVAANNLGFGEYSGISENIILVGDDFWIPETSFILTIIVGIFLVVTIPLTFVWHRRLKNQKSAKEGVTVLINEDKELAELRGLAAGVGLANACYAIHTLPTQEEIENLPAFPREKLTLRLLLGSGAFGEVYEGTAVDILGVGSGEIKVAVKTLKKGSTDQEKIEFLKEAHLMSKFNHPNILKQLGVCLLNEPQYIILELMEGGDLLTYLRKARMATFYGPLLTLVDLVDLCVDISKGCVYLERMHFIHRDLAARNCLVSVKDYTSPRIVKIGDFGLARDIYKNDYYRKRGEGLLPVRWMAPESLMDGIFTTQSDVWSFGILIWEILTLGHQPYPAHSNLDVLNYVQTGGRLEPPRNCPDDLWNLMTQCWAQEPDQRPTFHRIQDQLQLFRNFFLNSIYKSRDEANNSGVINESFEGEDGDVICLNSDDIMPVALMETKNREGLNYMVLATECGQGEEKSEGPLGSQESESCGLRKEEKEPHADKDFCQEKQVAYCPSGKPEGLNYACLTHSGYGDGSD
Sequence of protein kinases of the Z-LYTE panel (Homo sapiens, UniProt P45983) (P45983 whole entry): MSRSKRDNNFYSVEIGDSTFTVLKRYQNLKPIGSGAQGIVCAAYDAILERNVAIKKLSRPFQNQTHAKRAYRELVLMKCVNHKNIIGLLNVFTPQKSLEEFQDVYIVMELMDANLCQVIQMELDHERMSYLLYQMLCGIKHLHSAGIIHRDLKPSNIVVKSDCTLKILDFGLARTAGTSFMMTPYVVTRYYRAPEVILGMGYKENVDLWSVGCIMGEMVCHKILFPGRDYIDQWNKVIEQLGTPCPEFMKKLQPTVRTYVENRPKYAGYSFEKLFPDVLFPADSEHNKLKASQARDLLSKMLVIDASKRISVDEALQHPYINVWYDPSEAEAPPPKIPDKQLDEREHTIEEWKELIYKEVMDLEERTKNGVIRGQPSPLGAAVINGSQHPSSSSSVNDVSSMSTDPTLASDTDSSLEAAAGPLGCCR
Sequence of protein kinases of the Z-LYTE panel (Homo sapiens, UniProt P19784) (P19784 whole entry): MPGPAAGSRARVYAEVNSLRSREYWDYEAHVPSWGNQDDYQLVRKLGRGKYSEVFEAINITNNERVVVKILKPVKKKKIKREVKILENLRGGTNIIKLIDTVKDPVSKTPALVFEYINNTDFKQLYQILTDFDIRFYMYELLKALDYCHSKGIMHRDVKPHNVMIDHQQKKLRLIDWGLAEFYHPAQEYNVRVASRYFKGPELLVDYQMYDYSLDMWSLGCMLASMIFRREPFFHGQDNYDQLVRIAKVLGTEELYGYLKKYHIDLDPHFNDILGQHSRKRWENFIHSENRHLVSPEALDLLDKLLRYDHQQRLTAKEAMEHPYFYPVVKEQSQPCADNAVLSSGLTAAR
Sequence of protein kinases of the Z-LYTE panel (Homo sapiens, UniProt P54756) (P54756 25-1037): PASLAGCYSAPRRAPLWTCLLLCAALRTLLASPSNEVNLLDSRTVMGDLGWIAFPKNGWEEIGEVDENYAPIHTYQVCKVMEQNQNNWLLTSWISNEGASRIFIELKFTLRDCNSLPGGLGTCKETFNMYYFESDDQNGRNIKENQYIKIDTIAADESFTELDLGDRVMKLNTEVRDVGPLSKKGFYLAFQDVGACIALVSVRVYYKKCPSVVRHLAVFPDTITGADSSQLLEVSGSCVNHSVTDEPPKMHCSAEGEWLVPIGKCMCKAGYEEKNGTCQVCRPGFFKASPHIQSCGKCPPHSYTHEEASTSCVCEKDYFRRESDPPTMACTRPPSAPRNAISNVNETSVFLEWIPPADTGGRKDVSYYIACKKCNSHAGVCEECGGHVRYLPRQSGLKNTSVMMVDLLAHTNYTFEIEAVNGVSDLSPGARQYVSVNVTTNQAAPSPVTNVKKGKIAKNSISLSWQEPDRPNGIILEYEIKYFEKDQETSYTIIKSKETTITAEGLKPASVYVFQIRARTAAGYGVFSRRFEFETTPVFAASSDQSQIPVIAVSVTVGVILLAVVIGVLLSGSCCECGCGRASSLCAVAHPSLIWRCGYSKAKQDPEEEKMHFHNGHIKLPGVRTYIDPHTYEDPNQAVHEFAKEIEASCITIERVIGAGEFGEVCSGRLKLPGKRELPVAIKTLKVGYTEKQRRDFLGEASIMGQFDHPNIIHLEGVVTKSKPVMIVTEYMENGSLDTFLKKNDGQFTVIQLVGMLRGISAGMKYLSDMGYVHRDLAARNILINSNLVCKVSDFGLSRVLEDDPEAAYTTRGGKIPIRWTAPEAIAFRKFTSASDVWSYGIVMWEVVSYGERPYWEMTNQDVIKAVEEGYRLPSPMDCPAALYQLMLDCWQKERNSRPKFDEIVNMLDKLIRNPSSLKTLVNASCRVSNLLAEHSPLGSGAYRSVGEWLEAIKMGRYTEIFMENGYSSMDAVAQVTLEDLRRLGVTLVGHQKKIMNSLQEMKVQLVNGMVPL

CCN1CCN(c2ccc(Nc3cc(Nc4cccc5c4N(C(C)=O)CC5)ccn3)cc2)CC1 [Compound 1938]
inhibition at 1 µM ([1]; read-out: % Inhibition Point 1): 19% | inhibition at 1 µM ([1]; read-out: % Inhibition Point 2): 20% | inhibition at 1 µM ([1]; read-out: % Inhibition mean): 19% | inhibition at 1 µM ([2]; read-out: % Inhibition Point 1): -0.0637% | inhibition at 1 µM ([2]; read-out: % Inhibition Point 2): -0.692% | inhibition at 1 µM ([2]; read-out: % Inhibition mean): -0.378% | inhibition at 1 µM ([3]; read-out: % Inhibition Point 1): 28% | inhibition at 1 µM ([3]; read-out: % Inhibition Point 2): 32% | inhibition at 1 µM ([3]; read-out: % Inhibition mean): 30% | inhibition at 1 µM ([4]; read-out: % Inhibition Point 1): 4.24% | inhibition at 1 µM ([4]; read-out: % Inhibition Point 2): 1.52% | inhibition at 1 µM ([4]; read-out: % Inhibition mean): 3% | inhibition at 1 µM ([5]; read-out: % Inhibition Point 1): 0.87% | inhibition at 1 µM ([5]; read-out: % Inhibition Point 2): 2.67% | inhibition at 1 µM ([5]; read-out: % Inhibition mean): 1.77% | inhibition at 1 µM ([6]; read-out: % Inhibition Point 1): 19% | inhibition at 1 µM ([6]; read-out: % Inhibition Point 2): 22% | inhibition at 1 µM ([6]; read-out: % Inhibition mean): 21%

From paper PMC7614683, “A small molecule PI3Kα activator for cardioprotection and neuroregeneration” (Nature, 2023)
